According to patent US11021444B2, “Antiviral compounds” (priority 2013, dated 2021):
pEC50, pIC50: −log10 of the molar value. Like-named read-outs stand apart in the source and are kept apart here.

What was measured:
[1] = tested on: Respiratory Syncytial Virus (RSV) long strain; test: microbe, parasite or virus in culture; assay type: cell-based; settings: human respiratory syncytial virus, Tables A and B list compounds by EC50 band
Experimental: (§1) CPE reduction assays are performed as described by Sidwell and Huffman et al., Appl. Microbiol. (1971) 22(5):797-801 with slight modifications. HEp-2 cells (ATCC #, CCL-23) are seeded at a density of 1,500 cells/30 μl/well into the 384-well cell plate(s) (Corning #3701) one day prior to the assay. Compounds are added into 384-well cell plates by Labcyte POD 810 Plate Assembler system. Each of the test compounds is provided to duplicate wells of a 384-well cell plate at final concentrations starting from 100 μM or 1 μM using 1/3 stepwise dilutions for 9 points. Quick-thaw Respiratory Syncytial Virus (RSV) long strain (ATCC #VR-26) stock in a 37° C. water bath. Place on ice until ready to use. Viruses are diluted to the concentration of 100 TCID50/30 μL with medium and 30 μl diluted RSV are added into related wells of 384-well cell plates. For each plate, sixteen wells are set aside as uninfected, untreated cell controls (CC), and nine wells per test plate receive virus only as a control for virus replication (VC). The final DMSO concentration of all wells is 1%. Place the plates at 37° C., 5% CO2 for 5 days.
After 5 days incubation, observe the CPE of cells in all wells. […] Six μl of cell counting kit-8 reagent (CCK-8, Dojindo Molecular Technologies Inc., CK04-20) are added to each well, which allows colorimetric assays to determine the number of viable cells through the dehydrogenase activity detection. After 3-4 hour incubation, the absorbance of each well is measured with a spectrophotometric plate reader at 450 nm wavelength, using a 630 nm filter as background according to manufacturer's instruction.

[2] = Cytotoxicity Determination (CCK-8, without addition of virus); assay type: cell-based; settings: human, 50% cytotoxicity concentration (CC50)
Experimental: as §1
In order to determine the compound cytotoxicity, in parallel, each of the compounds is applied to duplicate wells in a 384-well cell plate at serial final concentrations starting from 100 μM using 1/2 stepwise dilutions for 7 points without addition of virus. Incubate the cells at 37° C., 5% CO2 for 5 days. Add 6 μL CCK-8 into each well and incubate in a CO2 incubator at 37° C. for 3-4 hours.

[3] = molecular target: recombinant RSV complex (Human respiratory syncytial virus A, UniProt P28887); test: RSV Polymerase Inhibition Assay; assay type: biochemical
Experimental: Standard RSV polymerase assays were conducted in the presence of 10 nM recombinant RSV complex in a reaction buffer containing Tris-HCl pH7.5, 6 mM MgCl2, and other additives and substrates including RNA oligonucleotides and radionucleotides. Standard reactions were incubated in 96-well plate format for 2 h at 30° C., in the presence of increasing concentration of inhibitor. The reaction was stopped with 90 μL of 0.1M EDTA, and the reaction product was transferred to a “reading” 96-well plate. After washing of the plate, radiolabeled RNA products were detected according to standard procedures with a Trilux Topcount scintillation counter.

[4] = HEp-2, 120 h, read-out: 50% effective concentration (EC50), HEp-2 cells infected with RSV long strain, 5 days, CCK-8 readout
[5] = 120 h, read-out: 50% effective concentration (EC50), HEp-2 cells infected with RSV long strain, 5 days, CCK-8 readout

recombinant RSV complex, sequence (P28887 whole entry): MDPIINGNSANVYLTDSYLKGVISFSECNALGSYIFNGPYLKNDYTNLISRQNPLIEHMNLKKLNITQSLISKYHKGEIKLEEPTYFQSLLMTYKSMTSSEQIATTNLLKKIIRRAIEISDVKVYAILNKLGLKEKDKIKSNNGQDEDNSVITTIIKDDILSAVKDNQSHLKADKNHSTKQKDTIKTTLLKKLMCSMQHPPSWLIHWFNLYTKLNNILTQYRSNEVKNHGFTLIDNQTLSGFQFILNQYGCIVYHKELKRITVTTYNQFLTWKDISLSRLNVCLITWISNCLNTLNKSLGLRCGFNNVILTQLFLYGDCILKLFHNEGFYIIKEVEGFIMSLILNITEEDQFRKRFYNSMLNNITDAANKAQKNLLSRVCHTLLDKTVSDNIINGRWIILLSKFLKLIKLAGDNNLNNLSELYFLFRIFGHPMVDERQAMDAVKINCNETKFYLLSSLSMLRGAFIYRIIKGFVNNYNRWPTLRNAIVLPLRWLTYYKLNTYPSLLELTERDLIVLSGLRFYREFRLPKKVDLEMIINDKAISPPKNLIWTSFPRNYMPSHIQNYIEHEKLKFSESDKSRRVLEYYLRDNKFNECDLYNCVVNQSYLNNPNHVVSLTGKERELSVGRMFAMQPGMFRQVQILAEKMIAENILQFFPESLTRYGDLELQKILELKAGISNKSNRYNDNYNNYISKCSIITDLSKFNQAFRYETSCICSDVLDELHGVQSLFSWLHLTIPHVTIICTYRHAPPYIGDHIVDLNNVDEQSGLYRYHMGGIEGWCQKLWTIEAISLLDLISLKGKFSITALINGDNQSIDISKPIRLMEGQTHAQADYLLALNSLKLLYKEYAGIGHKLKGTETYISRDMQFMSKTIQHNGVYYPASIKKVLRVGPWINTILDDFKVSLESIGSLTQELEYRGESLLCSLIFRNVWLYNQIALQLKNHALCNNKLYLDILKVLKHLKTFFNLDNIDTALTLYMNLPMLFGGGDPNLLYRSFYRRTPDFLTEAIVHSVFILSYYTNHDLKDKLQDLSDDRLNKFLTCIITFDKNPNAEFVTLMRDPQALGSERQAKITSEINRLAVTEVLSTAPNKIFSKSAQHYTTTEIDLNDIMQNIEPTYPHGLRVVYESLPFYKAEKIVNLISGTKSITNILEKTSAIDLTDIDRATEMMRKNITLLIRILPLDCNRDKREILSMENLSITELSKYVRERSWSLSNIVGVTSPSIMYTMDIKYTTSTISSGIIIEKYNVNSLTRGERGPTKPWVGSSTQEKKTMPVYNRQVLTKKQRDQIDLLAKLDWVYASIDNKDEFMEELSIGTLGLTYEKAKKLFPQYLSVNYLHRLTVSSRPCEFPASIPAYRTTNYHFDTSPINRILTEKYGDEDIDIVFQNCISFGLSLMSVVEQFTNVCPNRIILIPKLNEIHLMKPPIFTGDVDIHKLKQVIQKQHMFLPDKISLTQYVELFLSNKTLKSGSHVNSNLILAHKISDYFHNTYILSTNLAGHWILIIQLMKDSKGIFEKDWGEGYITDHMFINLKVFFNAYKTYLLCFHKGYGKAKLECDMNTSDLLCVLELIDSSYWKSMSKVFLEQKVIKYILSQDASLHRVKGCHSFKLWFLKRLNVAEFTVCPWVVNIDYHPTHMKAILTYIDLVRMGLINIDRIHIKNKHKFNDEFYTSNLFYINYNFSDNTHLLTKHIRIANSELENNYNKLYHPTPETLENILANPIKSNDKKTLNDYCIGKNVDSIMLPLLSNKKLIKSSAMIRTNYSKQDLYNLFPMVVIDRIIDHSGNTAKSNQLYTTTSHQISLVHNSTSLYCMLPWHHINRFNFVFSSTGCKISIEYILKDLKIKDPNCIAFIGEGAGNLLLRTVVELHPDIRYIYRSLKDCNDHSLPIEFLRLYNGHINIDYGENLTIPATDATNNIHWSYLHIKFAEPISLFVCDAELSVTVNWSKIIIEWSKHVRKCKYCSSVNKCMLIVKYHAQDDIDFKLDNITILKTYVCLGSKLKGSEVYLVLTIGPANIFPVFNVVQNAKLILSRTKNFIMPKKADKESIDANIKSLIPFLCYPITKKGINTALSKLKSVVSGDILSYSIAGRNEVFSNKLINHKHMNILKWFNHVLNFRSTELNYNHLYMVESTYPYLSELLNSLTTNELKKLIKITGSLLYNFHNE
recombinant RSV complex, sequence (P03421 whole entry, further chain): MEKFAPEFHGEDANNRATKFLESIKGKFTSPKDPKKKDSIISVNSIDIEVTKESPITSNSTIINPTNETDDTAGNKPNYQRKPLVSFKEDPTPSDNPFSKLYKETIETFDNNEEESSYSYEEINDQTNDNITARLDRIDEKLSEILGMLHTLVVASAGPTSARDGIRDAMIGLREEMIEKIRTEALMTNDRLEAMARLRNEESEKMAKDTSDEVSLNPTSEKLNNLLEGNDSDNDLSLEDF

| Compound | pEC50 [1, 4] | CC50 at 5 days [2] [µM] | pIC50 [3] | pEC50 [1, 5] |
| --- | --- | --- | --- | --- |
| COc1ccc(C(O)(CNC(=O)c2ccc3ncccc3c2)C(F)(F)F)nc1-c1ccc(F)c(Cl)c1 (stereo not drawn) [Compound 252] | 4.30 to 6.00 | 10 to 100 | > 6.00 |  |
| COc1cc(C(=O)NCC(C)(O)c2cc3cc[nH]c3c(-c3ccc(F)c(Cl)c3)n2)ccc1OCCF (single isomer, unassigned) [Compound 296] | > 6.00 | 10 to 100 | > 5.00 |  |
| Cc1ncc(C(=O)NCC(O)(c2cc(C(C)(C)N)cc(-c3ccc(F)cc3)n2)C(F)(F)F)o1 (stereo not drawn) [Compound 608] | 4.30 to 6.00 | > 100 | > 5.00 |  |
| COc1ccc(C(=O)NCC(OC)c2cccc(-c3csc4c(F)cccc34)n2)cc1OC (stereo not drawn) [Compound 148] | 4.30 to 6.00 | 10 to 100 | > 5.00 |  |
| COc1ccc(C(O)(CNC(=O)c2ccc(OC3CC3)c(Cl)c2)C(F)(F)F)nc1-c1ccc(F)c(Cl)c1 (stereo not drawn) [Compound 251] | 4.30 to 6.00 | 10 to 100 | > 6.00 |  |
| CC1(N)COc2c1cc(C(O)(CNC(=O)c1ccc(OCCO)c(F)c1)C(F)(F)F)nc2-c1ccc(F)cc1 (stereo not drawn) [Compound 476] | > 6.00 | 10 to 100 | > 6.00 |  |
| COc1cc(C(=O)NCC(O)(c2ccc(OC)c(-c3ccc(F)c(Cl)c3)n2)C2CC2)ccc1OCC(N)=O (stereo not drawn) [Compound 429] |  | 10 to 100 |  | > 6.00 |
| COc1cc(C(=O)NCC(=O)c2cc3c(c(-c4c[nH]c5c(F)cccc45)n2)OCC3)ccc1OCCF [Compound 287] | > 6.00 | > 100 | > 6.00 |  |
| COc1cc(C(=O)NCC(O)(CO)c2cc3c(c(-c4ccc(F)c(Cl)c4)n2)OCC3(C)C)cc2cccnc12 (stereo not drawn) [Compound 221] | > 6.00 | 10 to 100 | > 6.00 |  |
| COc1cc(C(=O)NCC(O)(c2ccc(OC)c(-c3ccc(F)c(Cl)c3)n2)C2CNC2)ccc1OC1CC1 (stereo not drawn) [Compound 463] | 4.30 to 6.00 | 10 to 100 | > 6.00 |  |
| COc1cc(C(=O)NC[C@@](O)(c2cc(C(C)(C)N)cc(-c3ccc(F)c(Cl)c3)n2)C(F)(F)F)ccc1OCCO [Compound 549] | 4.30 to 6.00 | 10 to 100 | > 6.00 |  |
| COc1cc(C(=O)NC[C@](O)(c2cc3c(c(-c4ccc(F)cc4)n2)OC[C@]3(C)N)C(F)(F)F)ccc1OC[C@@H](C)O [Compound 631] | > 6.00 | 10 to 100 | > 6.00 |  |
| COc1cc(C(=O)NCC(=O)c2cc3c(C)coc3c(-c3ccc(F)c(Cl)c3)n2)ccc1OC1CC1 [Compound 474] | > 6.00 | > 100 | > 6.00 |  |
| COc1cc(C(=O)NCC(O)(c2cc(C(C)(C)NC(C)=O)cc(-c3ccc(F)cc3)n2)C(F)(F)F)ccc1OC[C@@H](C)O (stereo partly drawn) [Compound 620] |  | > 100 | > 6.00 | > 6.00 |
| COCC(C)(N)c1cc(-c2ccc(F)c(Cl)c2)nc(C(O)(CNC(=O)c2ccc(OCCO)c(OC)c2)C(F)(F)F)c1 (stereo not drawn) [Compound 541] | > 6.00 | 10 to 100 | > 6.00 |  |
| COc1cc(C(=O)NCC(O)(c2cn(C)nn2)c2ccc(OC)c(-c3ccc(F)c(Cl)c3)n2)ccc1OCCO (stereo not drawn) [Compound 199] | > 6.00 | > 100 | > 6.00 |  |
| COc1cc(C(=O)NCC(O)(CO)c2cc3c(c(-c4ccc(F)c(Cl)c4)n2)OCC3(C)C)ccc1OC1CCNC1=O (stereo not drawn) [Compound 219] | > 6.00 | 10 to 100 | > 6.00 |  |
| COc1ccc(C(=O)NCC(O)c2nc(-c3csc4c(F)cccc34)c[nH]2)cc1OC (stereo not drawn) [Compound 132] |  | 10 to 100 |  | 4.30 to 6.00 |
| COc1cc(C(=O)NCC(=O)c2cc3c(c(-c4ccc(F)c(Cl)c4)n2)OCC3(C)C)cc2c(C)ccnc12 [Compound 229] |  | > 100 |  | 4.30 to 6.00 |

| Compound | pEC50 [1, 4] | CC50 at 5 days [2] [µM] | pIC50 [3] | pEC50 [1, 5] |
| --- | --- | --- | --- | --- |
| COc1ccc(C(=O)NCC(O)c2nc(-c3csc4c(F)cccc34)cs2)cc1OC (stereo not drawn) [Compound 134] |  | 10 to 100 |  | 4.30 to 6.00 |
| COc1ccc(C(=O)NCC(O)c2nc(-c3csc4c(F)cccc34)n3ccccc23)cc1OC (stereo not drawn) [Compound 113] |  | 10 to 100 |  | 4.30 to 6.00 |
| COc1cc(C(=O)NCC2(c3ccc(OC)c(-c4ccc(F)c(Cl)c4)n3)CNC(=O)O2)ccc1OCCO (stereo not drawn) [Compound 180] |  | > 100 | > 4.00 |  |
| COc1cc(C(=O)NCC(C)(O)c2csc(-c3ccc(F)c(Cl)c3)n2)ccc1OCCO (stereo not drawn) [Compound 441] |  | > 100 | > 4.00 |  |
| COc1cc(-c2csc3c(F)cccc23)nc(C(O)CNC(=O)c2ccc(OC)c(OC)c2)c1 (stereo not drawn) [Compound 100] |  | 10 to 100 |  | 4.30 to 6.00 |
| CCCn1nc(C(O)CNC(=O)c2ccc(OC)c(OC)c2)nc1-c1csc2c(F)cccc12 (stereo not drawn) [Compound 107] |  | 10 to 100 |  | 4.30 to 6.00 |
| CNC(=O)COc1ccc(C(=O)NCC(C)(O)c2cccc(-c3ccc(F)c(Cl)c3)n2)cc1OC (stereo not drawn) [Compound 121] |  | > 100 |  | 4.30 to 6.00 |
| COc1cc(C(=O)NCC(O)(c2ccc(OC)c(-c3ccc(F)c(Cl)c3)n2)C(F)(F)F)ccc1OC1CCCNC1=O (stereo not drawn) [Compound 340] |  | 10 to 100 |  | > 6.00 |
| COc1ccc(C(=O)NCC(O)c2cc(C)cc(-c3csc4c(F)cccc34)n2)cc1OC (stereo not drawn) [Compound 111] |  | 10 to 100 |  | 4.30 to 6.00 |
| COc1cc(C(=O)NCC(C)(O)c2cccc(-c3ccc(F)c(Cl)c3)c2)ccc1OCCO (stereo not drawn) [Compound 439] |  | > 100 | > 4.00 |  |
| COc1cc(C(=O)NCC(O)(c2ccc(OC)c(-c3ccc(F)c(Cl)c3)n2)C2CC2)ccc1CCO (stereo not drawn) [Compound 433] |  | 10 to 100 |  | > 6.00 |
| COc1cc(-c2csc3c(F)cccc23)nc(C(O)CNC(=O)c2ccc(OC)c(OC)c2)n1 (stereo not drawn) [Compound 131] |  | 10 to 100 |  | 4.30 to 6.00 |
| COc1ccc(C(=O)NCC(O)c2nc(-c3csc4c(F)cccc34)cn2C)cc1OC (stereo not drawn) [Compound 133] |  | 10 to 100 |  | 4.30 to 6.00 |
| COc1cc(C(=O)NCC(O)(c2ccc(OC)c(-c3ccc(F)c(Cl)c3)n2)C(F)(F)F)ccc1OC1CC1 (single isomer, unassigned) [Compound 247] |  | > 100 | > 5.00 |  |
| COc1cc(C(=O)NC[C@](O)(c2cc3c(c(-c4ccc(C#N)cc4)n2)OC[C@@]3(C)N)C(F)(F)F)ccc1OCCO [Compound 604c] |  | 10 to 100 | > 5.00 |  |
| COc1ccc(C(=O)NCC(O)c2csc(-c3csc4c(F)cccc34)n2)cc1OC (stereo not drawn) [Compound 108] |  | > 100 |  | 4.30 to 6.00 |
| COc1ccc(C(=O)NCC(O)(c2ccc(OC)c(-c3ccc(F)c(Cl)c3)n2)C(F)(F)F)cc1OC (stereo not drawn) [Compound 337] | 4.30 to 6.00 | 10 to 100 |  |  |
| COc1cc(C(O)CNC(=O)c2ccc(OC)c(OC)c2)nc(-c2csc3c(F)cccc23)n1 (stereo not drawn) [Compound 112] |  | 10 to 100 |  | 4.30 to 6.00 |
